Each compound was assayed against NRAS Q61K (Homo sapiens, UniProt P01111+P62937, Q61K) (assay: Disruption of BRAF RBD interaction with Ras (FRET / MOA assay)). Settings: read-out: NRAS Q61K FRET data IC50.
Assay type: biochemical
Protocol: Compound is present in plate wells as a 10-point 3-fold dilution series starting at a final concentration of 30 μM. […] Compounds that facilitate disruption of a Ras:RAF complex are identified as those eliciting a decrease in the TR-FRET ratio relative to DMSO control wells.
Note—The following protocol describes a procedure for monitoring disruption of K-Ras G12C (GMP-PNP) binding to BRAF^RBD by a compound of the invention. This protocol may also be executed substituting other Ras proteins or nucleotides.
The purpose of this biochemical assay was to measure the ability of test compounds to facilitate ternary complex formation between a nucleotide-loaded K-Ras isoform and Cyclophilin A; the resulting ternary complex disrupts binding to a BRAF^RBD construct, inhibiting K-Ras signaling through a RAF effector. Data is reported as IC50 values.
Compound was present in plate wells as a 10-point 3-fold dilution series starting at a final concentration of 30 μM. […] Compounds that facilitate disruption of a K-Ras:RAF complex were identified as those eliciting a decrease in the TR-FRET ratio relative to DMSO control wells.

Sequence of NRAS Q61K (P01111 whole entry Q61K): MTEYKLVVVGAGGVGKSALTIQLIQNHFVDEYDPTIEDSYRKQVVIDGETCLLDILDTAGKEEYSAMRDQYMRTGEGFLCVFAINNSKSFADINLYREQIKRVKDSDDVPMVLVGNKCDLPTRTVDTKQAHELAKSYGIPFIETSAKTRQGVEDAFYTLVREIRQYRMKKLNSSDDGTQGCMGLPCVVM
Sequence of NRAS Q61K (P62937 whole entry): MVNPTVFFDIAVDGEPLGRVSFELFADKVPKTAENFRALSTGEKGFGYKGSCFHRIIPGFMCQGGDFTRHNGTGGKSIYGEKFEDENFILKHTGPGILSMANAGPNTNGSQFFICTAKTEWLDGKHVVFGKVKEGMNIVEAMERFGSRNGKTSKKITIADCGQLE

Q: `CO[C@@H](C)c1ncccc1-c1c2c3cc(ccc3n1CC(F)F)-c1csc(n1)C[C@H](NC(=O)[C@H](C(C)C)N(C)C(=O)N1CC(N(C)C)C1)C(=O)N1CCC[C@H](N1)C(=O)OCC(C)(C)C2` (atropisomer, axis not shown) [Compound A316] was tested. Which IC50 did it give?
A: 10 to 100 nM

Q: How did the IC50 turn out when `CCn1c(-c2cccnc2[C@H](C)OC)c2c3cc(ccc31)-c1csc(n1)C[C@H](NC(=O)[C@H](C(C)C)N(C)C(=O)N(C)C1COC1)C(=O)N1CCC[C@H](N1)C(=O)OCC(C)(C)C2` (atropisomer, axis not shown) [Compound A334] was run?
A: 10 to 100 nM

Q: With `CCn1c(-c2cccnc2[C@H](C)OC)c2c3cc(ccc31)-c1csc(n1)C[C@H](NC(=O)[C@H](C(C)C)N(C)C(=O)N1CC(C(=O)O)C1)C(=O)N1CCC[C@H](N1)C(=O)OCC(C)(C)C2` (atropisomer, axis not shown) [Compound A344] as the compound, how does the IC50 read?
A: 10 to 100 nM

Q: `CCn1c(-c2cccnc2[C@H](C)OC)c2c3cc(ccc31)-c1csc(n1)C[C@H](NC(=O)[C@H](C(C)C)N(C)C(=O)N1CC(S(C)(=O)=O)C1)C(=O)N1CCC[C@H](N1)C(=O)OCC(C)(C)C2` (atropisomer, axis not shown) [Compound A383] was tested. Which IC50 did it give?
A: 10 to 100 nM

Q: With `CCn1c(-c2cccnc2[C@H](C)OC)c2c3cc(ccc31)-c1csc(n1)C[C@H](NC(=O)[C@H](C(C)C)N(C)C(=O)N1CC(COC)C1)C(=O)N1CCC[C@H](N1)C(=O)OCC(C)(C)C2` (atropisomer, axis not shown) [Compound A387] as the compound, how does the IC50 read?
A: 10 to 100 nM

Q: `CCn1c(-c2cccnc2[C@H](C)OC)c2c3cc(ccc31)-c1csc(n1)C[C@H](NC(=O)[C@H](C(C)C)N(C)C(=O)N1CC[C@H](O)C1)C(=O)N1CCC[C@H](N1)C(=O)OCC(C)(C)C2` (atropisomer, axis not shown) [Compound A401] was tested. Which IC50 did it give?
A: 10 to 100 nM

Q: `CCn1c(-c2cccnc2[C@H](C)OC)c2c3cc(ccc31)-c1cc(O)cc(c1)C[C@H](NC(=O)[C@H](C(C)C)N(C)C(=O)[C@H]1CCC(=O)O1)C(=O)N1CCC[C@H](N1)C(=O)OCC(C)(C)C2` (atropisomer, axis not shown) [Compound A405] was tested. Which IC50 did it give?
A: 10 to 100 nM

Q: `CCn1c(-c2cccnc2[C@H](C)OC)c2c3cc(ccc31)-c1csc(n1)C[C@H](NC(=O)[C@H](C(C)C)N(C)C(=O)N1C[C@@H]3OCCN(C)[C@@H]3C1)C(=O)N1CCC[C@H](N1)C(=O)OCC(C)(C)C2` (atropisomer, axis not shown) [Compound A444] was tested. Which IC50 did it give?
A: 10 to 100 nM

Q: `CCn1c(-c2cccnc2[C@H](C)OC)c2c3cc(ccc31)-c1csc(n1)C[C@H](NC(=O)[C@H](C(C)C)N(C)C(=O)N1C[C@@H]3OCCN(C)[C@H]3C1)C(=O)N1CCC[C@H](N1)C(=O)OCC(C)(C)C2` (atropisomer, axis not shown) [Compound A445] was tested. Which IC50 did it give?
A: 10 to 100 nM

Q: With `CCn1c(-c2cccnc2[C@H](C)OC)c2c3cc(ccc31)-c1csc(n1)C[C@H](NC(=O)[C@H](C(C)C)N(C)C(=O)N1CC3(CC(N(C)C(C)C)C3)C1)C(=O)N1CCC[C@H](N1)C(=O)OCC(C)(C)C2` (atropisomer, axis not shown) [Compound A485] as the compound, how does the IC50 read?
A: 10 to 100 nM

Q: `CCn1c(-c2cccnc2[C@H](C)OC)c2c3cc(ccc31)-c1csc(n1)C[C@H](NC(=O)[C@H](C(C)C)N(C)C(=O)N1CCCC[C@H](N(C)C)C1)C(=O)N1CCC[C@H](N1)C(=O)OCC(C)(C)C2` (atropisomer, axis not shown) [Compound A491] was tested. Which IC50 did it give?
A: 10 to 100 nM

Q: With `CCn1c(-c2cccnc2[C@H](C)OC)c2c3cc(ccc31)-c1csc(n1)C[C@H](NC(=O)[C@H](C(C)C)N(C)C(=O)N1CCC[C@H](N(C)C)CC1)C(=O)N1CCC[C@H](N1)C(=O)OCC(C)(C)C2` (atropisomer, axis not shown) [Compound A493] as the compound, how does the IC50 read?
A: 10 to 100 nM

Q: With `CCn1c(-c2cccnc2[C@H](C)OC)c2c3cc(ccc31)-c1csc(n1)C[C@H](NC(=O)[C@H](C(C)C)N(C)C(=O)N1CC3(CC(N(C)C4COC4)C3)C1)C(=O)N1CCC[C@H](N1)C(=O)OCC(C)(C)C2` (atropisomer, axis not shown) [Compound A511] as the compound, how does the IC50 read?
A: 10 to 100 nM

Q: With `CCn1c(-c2cccnc2[C@H](C)OC)c2c3cc(ccc31)-c1csc(n1)C[C@H](NC(=O)[C@H](C(C)C)N(C)C(=O)N1CC3(CC(NCCOC)C3)C1)C(=O)N1CCC[C@H](N1)C(=O)OCC(C)(C)C2` (atropisomer, axis not shown) [Compound A512] as the compound, how does the IC50 read?
A: 10 to 100 nM

Q: Which IC50 does the source give for `CCn1c(-c2cccnc2[C@H](C)OC)c2c3cc(ccc31)-c1csc(n1)C[C@H](NC(=O)[C@H](C(C)C)N(C)C(=O)N1CCC13CCS(=O)(=O)CC3)C(=O)N1CCC[C@H](N1)C(=O)OCC(C)(C)C2` (atropisomer, axis not shown) [Compound A530] here?
A: 10 to 100 nM

Q: How did the IC50 turn out when `CCn1c(-c2cccnc2[C@H](C)OC)c2c3cc(ccc31)-c1csc(n1)C[C@H](NC(=O)[C@H](C(C)C)N(C)C(=O)N1CC([C@H](C)COC)C1)C(=O)N1CCC[C@H](N1)C(=O)OCC(C)(C)C2` (atropisomer, axis not shown) [Compound A533] was run?
A: 10 to 100 nM

Q: With `CCn1c(-c2cccnc2[C@H](C)OC)c2c3cc(ccc31)-c1csc(n1)C[C@H](NC(=O)[C@H](C(C)C)N(C)C(=O)N1CCN3C(=O)CN(C)C[C@H]3C1)C(=O)N1CCC[C@H](N1)C(=O)OCC(C)(C)C2` (atropisomer, axis not shown) [Compound A537] as the compound, how does the IC50 read?
A: 10 to 100 nM

Q: Which IC50 does the source give for `CCn1c(-c2cccnc2[C@H](C)OC)c2c3cc(ccc31)-c1csc(n1)C[C@H](NC(=O)[C@H](C(C)C)N(C)C(=O)N1CC([C@H](C)N(C)C)C1)C(=O)N1CCC[C@H](N1)C(=O)OCC(C)(C)C2` (atropisomer, axis not shown) [Compound A538] here?
A: 10 to 100 nM

Q: `CCn1c(-c2cccnc2[C@H](C)OC)c2c3cc(ccc31)-c1csc(n1)C[C@H](NC(=O)[C@H](C(C)C)N(C)C(=O)N1CC(NS(C)(=O)=O)C1)C(=O)N1CCC[C@H](N1)C(=O)OCC(C)(C)C2` (atropisomer, axis not shown) [Compound A552] was tested. Which IC50 did it give?
A: 10 to 100 nM

Q: For `CCn1c(-c2cccnc2[C@H](C)OC)c2c3cc(ccc31)-c1csc(n1)C[C@H](NC(=O)[C@H](C(C)C)N(C)C(=O)N(C)CCc1ccncc1)C(=O)N1CCC[C@H](N1)C(=O)OCC(C)(C)C2` (atropisomer, axis not shown) [Compound A557], which IC50 is on record?
A: 10 to 100 nM

Q: With `CCn1c(-c2cccnc2[C@H](C)OC)c2c3cc(ccc31)-c1csc(n1)C[C@H](NC(=O)[C@H](C(C)C)N(C)C(=O)N1CCC[C@H](N(C)C)C1)C(=O)N1CCC[C@H](N1)C(=O)OCC(C)(C)C2` (atropisomer, axis not shown) [Compound A569] as the compound, how does the IC50 read?
A: 10 to 100 nM

Q: With `CCn1c(-c2cccnc2[C@H](C)OC)c2c3cc(ccc31)-c1csc(n1)C[C@H](NC(=O)[C@H](C(C)C)N(C)C(=O)N1CC(CN(C)C)C1)C(=O)N1CCC[C@H](N1)C(=O)OCC(C)(C)C2` (atropisomer, axis not shown) [Compound A576] as the compound, how does the IC50 read?
A: 10 to 100 nM

Q: Which IC50 does the source give for `CCn1c(-c2cccnc2[C@H](C)OC)c2c3cc(ccc31)-c1csc(n1)C[C@H](NC(=O)[C@H](C(C)C)N(C)C(=O)N1C[C@H](N)[C@@H](O)C1)C(=O)N1CCC[C@H](N1)C(=O)OCC(C)(C)C2` (atropisomer, axis not shown) [Compound A581] here?
A: 10 to 100 nM

Q: Which IC50 does the source give for `CCn1c(-c2cccnc2[C@H](C)OC)c2c3cc(ccc31)-c1csc(n1)C[C@H](NC(=O)[C@H](C(C)C)N(C)C(=O)N1CCO[C@H](c3ccccc3)C1)C(=O)N1CCC[C@H](N1)C(=O)OCC(C)(C)C2` (atropisomer, axis not shown) [Compound A582] here?
A: 10 to 100 nM

Q: `CCn1c(-c2cccnc2[C@H](C)OC)c2c3cc(ccc31)-c1csc(n1)C[C@H](NC(=O)[C@H](C(C)C)N(C)C(=O)N1CCO[C@@H](CN(C)C)C1)C(=O)N1CCC[C@H](N1)C(=O)OCC(C)(C)C2` (atropisomer, axis not shown) [Compound A591] was tested. Which IC50 did it give?
A: 10 to 100 nM

Q: For `CCn1c(-c2cccnc2[C@H](C)OC)c2c3cc(ccc31)-c1csc(n1)C[C@H](NC(=O)[C@H](C(C)C)N(C)C(=O)N1CCN(C(=O)[C@@H]3CCCN3C)CC1)C(=O)N1CCC[C@H](N1)C(=O)OCC(C)(C)C2` (atropisomer, axis not shown) [Compound A596], which IC50 is on record?
A: 10 to 100 nM

Q: How did the IC50 turn out when `CCn1c(-c2cccnc2[C@H](C)OC)c2c3cc(ccc31)-c1csc(n1)[C@@H](OC)[C@H](NC(=O)[C@H](C(C)C)N(C)C(=O)N(C)C)C(=O)N1CCC[C@H](N1)C(=O)OCC(C)(C)C2` (atropisomer, axis not shown) [Compound A598, (2S)—N-((6^3S,3S,4S,Z)-1^1-ethyl-3-methoxy-1^2-(2-((S)-1-methoxyethyl)pyridin-3-yl)-10,10-dimethyl-5,7-dioxo-6^1,6^2,6^3,6^4,6^5,6^6-hexahydro-1^1H-8-oxa-2(4,2)-thiazola-1(5,3)-indola-6(1,3)-pyridazinacycloundecaphane-4-yl)-3-methyl-2-(1,3,3-trimethylureido)butanamide] was run?
A: 10 to 100 nM

Q: `CCn1c(-c2cccnc2[C@H](C)OC)c2c3cc(ccc31)-c1csc(n1)C[C@H](NC(=O)[C@H](C(C)C)N(C)C(=O)N1CCO[C@@H](c3ccccc3)C1)C(=O)N1CCC[C@H](N1)C(=O)OCC(C)(C)C2` (atropisomer, axis not shown) [Compound A600] was tested. Which IC50 did it give?
A: 10 to 100 nM

Q: `CCn1c(-c2cccnc2[C@H](C)OC)c2c3cc(ccc31)-c1cc(O)cc(c1)C[C@H](NC(=O)[C@H](C(C)C)N(C)C(=O)C1CCC3(CCOC3)O1)C(=O)N1CCC[C@H](N1)C(=O)OCC(C)(C)C2` (stereo partly drawn) [Compound A409] was tested. Which IC50 did it give?
A: 10 to 100 nM

Q: Which IC50 does the source give for `CCn1c(-c2cccnc2[C@H](C)OC)c2c3cc(ccc31)-c1csc(n1)C[C@H](NC(=O)[C@H](C(C)C)N(C)C(=O)N1CC(C#N)(N(C)C)C1)C(=O)N1CCC[C@H](N1)C(=O)OCC(C)(C)C2` [Compound A452] here?
A: 10 to 100 nM

Source: US20230374035A1, “RAS INHIBITORS” (Revolution Medicines, Inc., priority 2019, published 2023)
